Results published in patent US10370436B2, “Anti-pseudomonas Psl binding molecules and uses thereof” (priority 2011, dated 2019).

Tested on: P. aeruginosa strains PAO1, 33356, 6294, 6077
Experiment: P. aeruginosa acute pneumonia model, survival
Assay type: in vivo, BALB/c mice
Method: FIG. 6 (A-G): Survival rates for animals treated with anti-Psl monoclonal antibodies Cam-003 or WapR-004 in a P. aeruginosa acute pneumonia model. (A-D) Animals were treated with Cam-003 at 45, 15, and 5 mg/kg and R347 at 45 mg/kg or PBS 24 hours prior to intranasal infection with (A) PAO1 (1.6×10^7 CFU), (B) 33356 (3×10^7 CFU), (C) 6294 (7×10^6 CFU), (D) 6077 (1×10^6 CFU). (E-F) Animals were treated with WapR-004 at 5 and 1 mg/kg as indicated followed by infection with 6077 at (E) (8×10^5 CFU), or (F) (6×10^5 CFU). Animals were carefully monitored for survival up to 72 hours (A-D) or for 120 hours (E-F). (G) Animals were treated with Cam-003 at 15 mg/kg or 5 mg/kg, or R347 at 15 mg/kg 24 hours prior to intranasal infection with PAO1 (4.4×10^7 CFU), and Cam-003 at 15 mg/kg 24 hours prior to intranasal infection with PAO1ΔpslA (3×10^7 CFU). In all experiments, PBS and R347 served as negative controls. Results are represented as Kaplan-Meier survival curves; differences in survival were calculated by the Log-rank test for Cam-003 vs. R347. (A) Cam-003 (45 mg/kg—P<0.0001; 15 mg/kg—P=0.0003; 5 mg/kg—P=0.0033). (B) Cam-003 (45 mg/kg—P=0.0012; 15 mg/kg—P=0.0012; 5 mg/kg—P=0.0373). (C) Cam-003 (45 mg/kg—P=0.0007; 15 mg/kg—P=0.0019; 5 mg/kg—P=0.0212). (D) Cam-003 (45 mg/kg—P<0.0001; 15 mg/kg—P<0.0001; 5 mg/kg—P=0.0001). Results are representative of at least two independent experiments. (E) [Cam-003 (5 mg/kg) vs. R347 (5 mg/kg): P=0.02; Cam-003 (1 mg/kg) vs. R347 (5 mg/kg): P=0.4848; WapR-004 (5 mg/kg) vs. R347 (5 mg/kg): P<0.0001; WapR-004 (1 mg/kg) vs. R347 (5 mg/kg): P=0.0886; WapR-004 (5 mg/kg) vs. Cam-003 (5 mg/kg): P=0.0017; WapR-004 (1 mg/kg) vs. Cam-003 (1 mg/kg): P=0.2468; R347 (5 mg/kg) vs. PBS: P=0.6676] (F) [Cam-003 (5 mg/kg) vs. R347 (5 mg/kg): P=0.0004; Cam-003 (1 mg/kg) vs. R347 (5 mg/kg): P<0.0001; WapR-004 (5 mg/kg) vs. R347 (5 mg/kg): P<0.0001; WapR-004 (1 mg/kg) vs. R347 (5 mg/kg): P<0.0001; WapR-004 (5 mg/kg) vs. Cam-003 (5 mg/kg): P=0.0002; WapR-004 (1 mg/kg) vs. Cam-003 (1 mg/kg): P=0.2628; R347 (5 mg/kg) vs. PBS: P=0.6676. (G) Cam-003 (15 mg/kg—P=0.0028; 5 mg/kg—P=0.0028)]. Results are representative of five independent experiments.
Antibodies or PBS were administered 24 hours before infection in each model. P. aeruginosa acute pneumonia, keratitis, and thermal injury infection models were performed as described (DiGiandomenico, A., et al., Proc Natl Acad Sci USA 104, 4624-4629 (2007)), with modifications. In the acute pneumonia model, BALB/c mice (The Jackson Laboratory) were infected with P. aeruginosa strains suspended in a 0.05 ml inoculum. In the thermal injury model, CF-1 mice (Charles River) received a 10% total body surface area burn with a metal brand heated to 92° C. for 10 seconds. Animals were infected subcutaneously with P. aeruginosa strain 6077 at the indicated dose. For organ burden experiments, acute pneumonia was induced in mice followed by harvesting of lungs, spleens, and kidneys 24 hours post-infection for determination of CFU.

## Cam-003: human IgG1 anti-Psl monoclonal antibody, VH SEQ ID NO: 1 and VL SEQ ID NO: 2
Psl mutant strain PAO1ΔpslA, FIG. 6G
  survival: Increased survival was not observed
Larger infectious inoculum of 6077 (1.07×10^6), titrated antibody dose, FIG. 9E
  activity versus Cam-003-TM: superior to Cam-003-TM
Strain 6077, 5 mg/kg, FIG. 6D
  survival: 90%
Strain 33356, 5 mg/kg, FIG. 6B
  survival: 80%
Strain PAO1, at 120 hours, FIG. 6G
  survival: 100%
Strains 33356 and 6077, 45 and 15 mg/kg, FIGS. 6B, 6D
  protection from challenge: complete protection
Strains PAO1 and 6294, 45, 15, 5 mg/kg 24 hours prior to intranasal infection, FIGS. 6A, 6C
  survival: significant concentration-dependent survival
